Columns and labels:
E. coli A 261 = test: MIC, test tube series dilution test, E. coli A 261; format: cell-based; settings: 24 hours, 37°C
Proteus morg. 932 = test: MIC, test tube series dilution test, Proteus morg. 932; format: cell-based; settings: 24 hours, 37°C
Psdm. aerug. Walter = test: MIC, test tube series dilution test, Psdm. aerug. Walter; format: cell-based, Pseudomonas aeruginosa; settings: for MIC: Psdm. aerug. Walter, 24 hours, 37°C; for Activity against Psdm. aerug. Walter (minimum inhibitory concentration): 24 hours' incubation
Staph. aureus 133 = format: cell-based, Staphylococcus aureus; settings: for MIC: Staph. aureus 133, 24 hours, 37°C; for Activity against Staph. aureus 133 (minimum inhibitory concentration): 24 hours' incubation
E. coli 14 = format: cell-based; settings: for MIC: E. coli 14, 24 hours, 37°C; for Activity against E. coli 14 (minimum inhibitory concentration): 24 hours' incubation
Proteus vulg. 1017 = format: cell-based, Proteus vulgaris; settings: for MIC: Proteus 1017, 24 hours, 37°C; for Activity against Proteus vulg. 1017 (minimum inhibitory concentration): 24 hours' incubation
Staph. aureus 1756 = test: MIC, test tube series dilution test, Staph. aureus 1756; format: cell-based, Staphylococcus aureus; settings: for MIC: Staph. aureus 1756, 24 hours, 37°C
Enterococcus 9790 = test: MIC, test tube series dilution test, Enterococcus 9790; format: cell-based; settings: 24 hours, 37°C
E. coli 183/58 = test: MIC, test tube series dilution test, E. coli 183/58; format: cell-based; settings: 24 hours, 37°C
Psdm. aerug. F 41 = test: MIC, test tube series dilution test, Psdm. aerug. F 41; format: cell-based, Pseudomonas aeruginosa; settings: for MIC: Psdm. aerug. F 41, 24 hours, 37°C; for Activity against Psdm. aerug. F 41 (minimum inhibitory concentration): 24 hours' incubation
E. coli C 165 = test: MIC, test tube series dilution test, E. coli C 165; format: cell-based; settings: 24 hours, 37°C
Klebsiella K 10 = test: MIC, test tube series dilution test, Klebsiella K 10; format: cell-based; settings: 24 hours, 37°C
Klebsiella 63 = test: MIC, test tube series dilution test, Klebsiella 63; format: cell-based; settings: for MIC: Klebsiella 63, 24 hours, 37°C; for Activity against Klebs. 63 (minimum inhibitory concentration): 24 hours' incubation

Compound	MIC (E. coli A 261)	MIC (Proteus morg. 932) [U/ml]	MIC (Psdm. aerug. Walter)	MIC (Staph. aureus 133) [U/ml]	MIC (E. coli 14)	MIC (Enterococcus 9790)	MIC (Psdm. aerug. F 41)	MIC (Klebsiella K 10) [U/ml]	further results
CC1(C)S[C@@H]2[C@H](NC(=O)[C@H](NC(=O)c3ccc(NC(=O)C4(O)CC4)cc3)c3ccccc3)C(=O)N2[C@H]1C(=O)O [Example 2, sodium D(-)-α-(4-cyclopropanol-1-carbonyl-aminobenzoylamino)-benzylpenicillin]	> 256 U/ml	> 256	> 256 U/ml	< 1	–	–	–	–	–
CC1(C)S[C@@H]2[C@H](NC(=O)[C@H](NC(=O)c3ccc(NC(=O)c4cc(Cl)cc(Cl)c4)cc3)c3ccccc3)C(=O)N2[C@H]1C(=O)O [Example 20]	~ 256 U/ml	–	~ 4 U/ml	< 1	< 1 U/ml	~ 4 U/ml	–	–	MIC (Proteus vulg. 1017): ~ 4 U/ml; MIC (Staph. aureus 1756): ~ 4 U/ml
Cc1cc(C)cc(C(=O)Nc2ccc(C(=O)N[C@@H](C(=O)N[C@@H]3C(=O)N4[C@@H]3SC(C)(C)[C@@H]4C(=O)O)c3ccccc3)cc2)c1 [Example 21]	~ 256 U/ml	–	–	< 1	< 1 U/ml	~ 4 U/ml	~ 16 U/ml	–	MIC (E. coli 183/58): ~ 1 U/ml
CC1(C)S[C@@H]2[C@H](NC(=O)[C@H](NC(=O)c3ccc(NC(=O)c4ccc(C(F)(F)F)cc4)cc3)c3ccccc3)C(=O)N2[C@H]1C(=O)O [Example 23]	–	–	–	< 1	< 1 U/ml	–	–	–	MIC (E. coli 183/58): < 1 U/ml
CC1(C)S[C@@H]2[C@H](NC(=O)[C@H](NC(=O)c3ccc(N)cc3)c3ccccc3)C(=O)N2[C@H]1C(=O)O [Example 34, sodium D(-)-α-(4-amino-benzoylamino)-benzylpenicillin]	> 256 U/ml	> 256	–	< 1	~ 16 U/ml	~ 4 U/ml	64 U/ml	256	MIC (E. coli C 165): 32 U/ml; MIC (Proteus vulg. 1017): 128 U/ml; MIC (Klebsiella 63): 128 U/ml; MIC (Staph. aureus 1756): 32 U/ml
CC(C)(CN=[N+]=[N-])C(=O)Nc1ccc(C(=O)N[C@@H](C(=O)N[C@@H]2C(=O)N3[C@@H]2SC(C)(C)[C@@H]3C(=O)O)c2ccccc2)cc1 [Example 39]	> 256 U/ml	–	–	< 1	–	–	–	–	MIC (Staph. aureus 1756): ~ 64 U/ml
COCC(=O)Nc1ccc(C(=O)N[C@@H](C(=O)N[C@@H]2C(=O)N3[C@@H]2SC(C)(C)[C@@H]3C(=O)O)c2ccccc2)cc1 [Example 42]	–	–	–	< 1	–	~ 4 U/ml	–	> 256	MIC (Proteus vulg. 1017): > 256 U/ml
CNc1ccc(C(=O)N[C@@H](C(=O)N[C@@H]2C(=O)N3[C@@H]2SC(C)(C)[C@@H]3C(=O)O)c2ccccc2)cc1 [Example 43]	> 256 U/ml	> 256	> 256 U/ml	< 1	~ 16 U/ml	–	–	–	–
CNC(=O)Nc1ccc(C(=O)N[C@@H](C(=O)N[C@@H]2C(=O)N3[C@@H]2SC(C)(C)[C@@H]3C(=O)O)c2ccccc2)cc1 [Example 44]	–	–	–	< 1	~ 8 U/ml	4 U/ml	~ 64 U/ml	256	MIC (E. coli C 165): 16 U/ml; MIC (Proteus vulg. 1017): > 256 U/ml; MIC (Klebsiella 63): 128 U/ml; MIC (Staph. aureus 1756): 64 U/ml
CC1(C)S[C@@H]2[C@H](NC(=O)[C@H](NC(=O)c3ccc(NC(=O)Nc4ccc(F)cc4)cc3)c3ccccc3)C(=O)N2[C@H]1C(=O)O [Example 46]	–	–	–	< 1	< 1 U/ml	~ 4 U/ml	–	–	MIC (E. coli C 165): ~ 4 U/ml
CNC(=S)Nc1ccc(C(=O)N[C@@H](C(=O)N[C@@H]2C(=O)N3[C@@H]2SC(C)(C)[C@@H]3C(=O)O)c2ccccc2)cc1 [Example 47]	> 256 U/ml	> 256	> 256 U/ml	< 1	16 U/ml	4 U/ml	64 U/ml	256	MIC (E. coli C 165): 32 U/ml; MIC (Proteus vulg. 1017): 32 U/ml; MIC (Klebsiella 63): 128 U/ml; MIC (Staph. aureus 1756): 64 U/ml
CC1(C)S[C@@H]2[C@H](NC(=O)[C@H](NC(=O)c3ccccc3NC(=O)C3CC3)c3ccccc3)C(=O)N2[C@H]1C(=O)O [Example 49]	–	–	–	< 1	–	–	< 256 U/ml	> 256	MIC (Klebsiella 63): > 256 U/ml
CC1(C)S[C@@H]2[C@H](NC(=O)[C@H](NC(=O)c3ccccc3NC(=O)C3CCC3)c3ccccc3)C(=O)N2[C@H]1C(=O)O [Example 50]	–	–	–	< 1	–	–	–	> 256	–
CC1(C)S[C@@H]2[C@H](NC(=O)[C@H](NC(=O)c3cc(NC(=O)C4CC4)ccc3Cl)c3ccccc3)C(=O)N2[C@H]1C(=O)O [Example 53]	–	–	–	< 1	32 U/ml	2-4 U/ml	128-256 U/ml	> 256	MIC (E. coli C 165): 128-256 U/ml; MIC (E. coli 183/58): 128-256 U/ml; MIC (Proteus vulg. 1017): > 256 U/ml; MIC (Klebsiella 63): 128-256 U/ml; MIC (Staph. aureus 1756): 32-64 U/ml
CC1(C)S[C@@H]2[C@H](NC(=O)[C@H](NC(=O)CSc3ccc(NC=O)cc3)c3ccccc3)C(=O)N2[C@H]1C(=O)O [Example 59]	> 256 U/ml	> 256	> 256 U/ml	< 1	~ 4 U/ml	–	> 256 U/ml	–	–
CC1(C)S[C@@H]2[C@H](NC(=O)[C@H](NC(=O)CSc3ccc(NC(=O)C4CCC4)cc3)c3ccccc3)C(=O)N2[C@H]1C(=O)O [Example 61]	> 256 U/ml	> 256	> 256 U/ml	< 1	–	~ 16 U/ml	–	–	–
CC1(C)S[C@@H]2[C@H](NC(=O)[C@H](NC(=O)CNC(=O)c3ccc(NC(=O)C4CC4)cc3)c3ccccc3)C(=O)N2[C@H]1C(=O)O [Example 64]	> 256 U/ml	> 256	–	–	–	8 U/ml	256 U/ml	128	MIC (E. coli C 165): 32 U/ml; MIC (E. coli 183/58): 64 U/ml; MIC (Proteus vulg. 1017): 64 U/ml; MIC (Klebsiella 63): 64 U/ml; MIC (Staph. aureus 1756): 16 U/ml
CC1(C)S[C@@H]2[C@H](NC(=O)[C@H](NC(=O)CNC(=O)c3ccc(N)cc3)c3ccccc3)C(=O)N2[C@H]1C(=O)O [Example 70]	> 256 U/ml	> 256	> 256 U/ml	< 1	–	–	–	–	–
CC1(C)S[C@@H]2[C@H](NC(=O)[C@H](NC(=O)c3ccc(NC=O)c(NC=O)c3)c3ccccc3)C(=O)N2[C@H]1C(=O)O [Example 74]	–	–	–	< 1	–	–	–	> 256	–
CC1(C)S[C@@H]2[C@H](NC(=O)[C@H](NC(=O)Cc3ccc(NC(=O)C4CCC4)cc3)c3ccccc3)C(=O)N2[C@H]1C(=O)O [Example 76, sodium D(-)-α-[(4-cyclobutanecarbonylaminophenyl)-acetamido]-benzylpenicillin]	> 256 U/ml	> 256	> 256 U/ml	< 1	< 4 U/ml	~ 16 U/ml	> 256 U/ml	–	–
CC1(C)S[C@@H]2[C@H](NC(=O)[C@H](NC(=O)c3ccc(NC(=O)C4CCCC4)cc3O)c3ccccc3)C(=O)N2[C@H]1C(=O)O [Example 77, sodium D(-)-α-(4-cyclopentanecarbonylamino-2-hydroxybenzoylamino)benzylpenicillin]	–	–	–	–	–	–	–	–	Activity against E. coli 14 (minimum inhibitory concentration) (E. coli 14): 2-4 U/ml; Activity against Psdm. aerug. Walter (minimum inhibitory concentration) (Psdm. aerug. Walter): 8-16 U/ml; Activity against Klebs. 63 (minimum inhibitory concentration) (Klebsiella 63): 32-64 U/ml; Activity against Staph. aureus 1756 (minimum inhibitory concentration) (Staph. aureus 1756; 24 hours' incubation): 32-64 U/ml
COc1cc(C=CC(=O)Nc2ccc(C(=O)N[C@@H](C(=O)N[C@@H]3C(=O)N4[C@@H]3SC(C)(C)[C@@H]4C(=O)O)c3ccccc3)cc2)cc(OC)c1OC [Example 78, sodium D(-)-α-[4-(3,4,5-trimethoxycinnamoylamino-benzoylamino)]-benzylpenicillin]	–	–	–	–	–	–	–	–	Activity against E. coli 14 (minimum inhibitory concentration) (E. coli 14): 2-4 U/ml; Activity against Proteus vulg. 1017 (minimum inhibitory concentration) (Proteus vulg. 1017): 128-256 U/ml; Activity against Psdm. aerug. Walter (minimum inhibitory concentration) (Psdm. aerug. Walter): 32-64 U/ml; Activity against Klebs. 63 (minimum inhibitory concentration) (Klebsiella 63): 32-64 U/ml
CC1(C)S[C@@H]2[C@H](NC(=O)[C@H](NC(=O)c3ccc(NC(=O)c4ccc(S(C)(=O)=O)cc4)cc3)c3ccccc3)C(=O)N2[C@H]1C(=O)O [Example 80, sodium D(-)-α-[4-(p-methylsulphonylbenzoylamino)-benzoylamino]-benzylpenicillin]	–	–	–	–	–	–	–	–	Activity against E. coli 14 (minimum inhibitory concentration) (E. coli 14): 4-8 U/ml; Activity against Proteus vulg. 1017 (minimum inhibitory concentration) (Proteus vulg. 1017): 128-256 U/ml; Activity against Psdm. aerug. F 41 (minimum inhibitory concentration) (Psdm. aerug. F 41): 32-64 U/ml; Activity against Klebs. 63 (minimum inhibitory concentration) (Klebsiella 63): 32-64 U/ml; Activity against Staph. aureus 133 (minimum inhibitory concentration) (Staph. aureus 133): < 1 U/ml
CC1(C)S[C@@H]2[C@H](NC(=O)[C@H](NC(=O)c3ccc(NC(=O)C4CCCC4)cc3)c3ccc(O)cc3)C(=O)N2[C@H]1C(=O)O [Example 81]	–	–	–	–	–	–	–	–	Activity against E. coli 14 (minimum inhibitory concentration) (E. coli 14): 4-8 U/ml; Activity against Proteus vulg. 1017 (minimum inhibitory concentration) (Proteus vulg. 1017): > 256 U/ml; Activity against Psdm. aerug. F 41 (minimum inhibitory concentration) (Psdm. aerug. F 41): 32-64 U/ml; Activity against Klebs. 63 (minimum inhibitory concentration) (Klebsiella 63): 128-256 U/ml; Activity against Staph. aureus 133 (minimum inhibitory concentration) (Staph. aureus 133): < 1 U/ml
